Experiment: Inhibition of human 20S constitutive proteasome beta-1 using Z-LLE-betaNA as substrate incubated for 15 mins measured for 45 mins by fluorescence assay

Compound	IC50
C[C@H](NC(=O)[C@H](Cc1ccc(OCc2ccccc2)cc1)NC(=O)OC(C)(C)C)C(=O)N[C@@H](C[C@]1(O)C(=O)Nc2ccccc21)C(=O)NC(c1ccccc1)c1ccccc1	2.2 µM
C[C@H](NC(=O)Cc1cccc(Oc2ccccc2)c1)C(=O)N[C@@H](C[C@]1(O)C(=O)Nc2ccccc21)C(=O)NCc1ccccc1	40 µM
C[C@H](NC(=O)[C@H](Cc1ccc(OCc2ccccc2)cc1)NC(=O)OC(C)(C)C)C(=O)N[C@@H](C[C@]1(O)C(=O)Nc2ccccc21)C(=O)NCc1cccc2ccccc12	2.14 µM
C[C@H](NC(=O)[C@H](Cc1ccc(OCc2ccccc2)cc1)NC(=O)OC(C)(C)C)C(=O)N[C@@H](C[C@]1(O)C(=O)N(C)c2ccccc21)C(=O)NCc1ccccc1	11.4 µM
C[C@H](NC(=O)[C@H](Cc1ccc(OCc2ccccc2)cc1)NC(=O)OC(C)(C)C)C(=O)N[C@@H](C[C@]1(O)C(=O)Nc2ccccc21)C(=O)NCC(C)(C)C	15.1 µM
C[C@H](NC(=O)[C@H](Cc1ccc(OCc2ccccc2)cc1)NC(=O)OC(C)(C)C)C(=O)N[C@@H](C[C@]1(O)C(=O)Nc2ccccc21)C(=O)NCc1ccc(-c2ccccc2)cc1	17.6 µM
C[C@H](NC(=O)[C@H](Cc1ccc(OCc2ccccc2)cc1)NC(=O)OC(C)(C)C)C(=O)N[C@@H](C[C@@]1(O)C(=O)N(C)c2ccccc21)C(=O)NCc1ccccc1	13.4 µM

Other lines, results leading:

IC50	Compound
30 µM	C[C@H](NC(=O)[C@@H](N)Cc1ccc(OCc2ccccc2)cc1)C(=O)N[C@@H](C[C@]1(O)C(=O)Nc2ccccc21)C(=O)NCc1ccccc1
31.9 µM	CC(O)[C@@H](NC(=O)c1ccc(OCc2ccccc2)cc1)C(=O)N[C@@H](C[C@]1(O)C(=O)Nc2ccccc21)C(=O)NCc1ccccc1 (stereo not given in full)
13 µM	NCCCC[C@H](NC(=O)[C@@H](N)Cc1ccc(OCc2ccccc2)cc1)C(=O)N[C@@H](C[C@]1(O)C(=O)Nc2ccccc21)C(=O)NCc1ccccc1
35 µM	C[C@H](NC(=O)c1ccc(OCc2ccccc2)cc1)C(=O)N[C@@H](C[C@]1(O)C(=O)Nc2ccccc21)C(=O)NCc1ccccc1
17.1 µM	C[C@@H](NC(=O)[C@H](Cc1ccc(OCc2ccccc2)cc1)NC(=O)OC(C)(C)C)C(=O)N[C@@H](C[C@]1(O)C(=O)Nc2ccccc21)C(=O)NCc1ccccc1
20.1 µM	CC(C)(C)OC(=O)N[C@@H](Cc1ccc(OCc2ccccc2)cc1)C(=O)N[C@@H](CC(N)=O)C(=O)N[C@@H](C[C@]1(O)C(=O)Nc2ccccc21)C(=O)NCc1ccccc1
4.9 µM	C[C@H](NC(=O)[C@H](Cc1ccc(OCc2ccccc2)cc1)NC(=O)OC(C)(C)C)C(=O)N[C@@H](C[C@]1(O)C(=O)Nc2ccccc21)C(=O)NCCc1ccccc1
17.2 µM	C[C@H](NC(=O)[C@H](Cc1ccc(OCc2ccccc2)cc1)NC(=O)OC(C)(C)C)C(=O)N[C@@H](C[C@@]1(O)C(=O)Nc2ccccc21)C(=O)NCc1ccccc1

From BindingDB's records for doi:10.1016/j.ejmech.2018.01.013 (University of Rennes 1, 2018)
